{
  "source": "patent US20140007865A1",
  "about": "“OLOPATADINE NASAL SPRAY REGIMEN FOR CHILDREN” (Alcon Research, Ltd., priority 2009, published 2014)",
  "assay": "Acid-base equilibrium (pKa) of olopatadine",
  "format": "physicochemical",
  "source_text": "Olopatadine has both a carboxylic functional group (pKa1=4.18) and a tertiary amino group (pKa2=9.79). It exists in different ionic forms depending upon the pH of the solution. Olopatadine exists predominantly as a zwitterion in the pH range between the two pKa values with a negatively-charged carboxylic group and a positively-charged tertiary amino group. The iso-electric point of the olopatadine zwitterion is at pH 6.99. At a pH lower than pKa1, cationic olopatadine (with ionized tertiary amino group) is dominant. At a pH higher than pKa2, anionic olopatadine (with ionized carboxylic group) is dominant.",
  "data": [
    {"smiles": "CN(C)CC/C=C1/c2ccccc2COc2ccc(CC(=O)O)cc21", "note": "[Olopatadine, Z-11-(3-dimethylaminopropylidene)-6,1′-dihydrodibenz[b,e]oxepine-2-acetic acid]", "values": [
      {"measurement": "iso-electric point of the olopatadine zwitterion", "value": 6.99, "unit": "pH"},
      {"measurement": "pKa1 (carboxylic functional group)", "value": 4.18},
      {"measurement": "pKa2 (tertiary amino group)", "value": 9.79}
    ]}
  ]
}
